Laboratory results from PMC8000840, “Novel IMB16-4 Compound Loaded into Silica Nanoparticles Exhibits Enhanced Oral Bioavailability and Increased Anti-Liver Fibrosis In Vitro” (Molecules, 2021).
In brackets after ≈: the same amount, converted by molar mass.

Key:
NAFLD model rats = tested on: NAFLD model rats; set-up: method as in PMID 23752471, PMID 30573812; conditions: NAFLD model rats ref 18, 19; cited from earlier work
[1] = Equilibrium concentration (solubility) study in water; type: physicochemical; conditions: distilled water; raw IMB16-4 in water, 25 ± 2 °C, equilibrium about 24 h
Protocol: An excess amount of raw IMB16-4 was added into 5 mL of distilled water at 25 ± 2 °C. The raw IMB16-4 solution at equilibrium time (about 24 h) was withdrawn and filtered using a 0.22 μm membrane. The subsequent filtrate was diluted with internal standard (4′-Chloroacetanilide) acetonitrile solution and analyzed by HPLC-MS/MS analysis (Thermo LTQ XL, USA). The standard curve for IMB16-4 was the linear (R^2 > 0.992) over the concentration range of 0.3~1200.0 ng/mL. The quantitative ion pair of IMB16-4 and internal standard quantitative were m/z = 499.9/196.0 and m/z = 168.04/126.1, respectively.

[2] = In vitro dissolution, USP II paddle method; type: physicochemical; conditions: release medium, 12 h, 37 °C, 3% SDS
Protocol: Dissolution studies were conducted using a USP II paddle method (100 rpm, 37 °C, and 900 mL dissolution medium) with a dissolution tester (ZRS-8LD, China). The release of IMB16-4 and IMB16-4-MSNs was performed in pH 1.0 hydrochloric acid solution and pH 6.8 phosphate buffer solutions, containing 3% (w/v) SDS, respectively. All release studies were carried out in triplicate. At predetermined time intervals, 5 mL of sample solution was withdrawn from the release medium and filtered using a 0.22 μm membrane filter before running the HPLC analysis. An equivalent amount of fresh medium was added to maintain a constant dissolution volume.

[3] = tested on: α-SMA, TGF-β1 and MMP2 protein levels in LX-2 cells; assay: In vitro antifibrotic effects, Western blot of hepatic fibrogenic markers after TGFβ1 stimulation; type: cell-based, human; conditions: IMB16-4 2 µM, TGFβ1 2 ng/mL, 24 h
Protocol: After ultraviolet sterilization, raw IMB16-4, IMB16-4-MSNs and MSNs were suspended in water, respectively. Another group of raw IMB16-4 was suspended in DMSO. The concentration of IMB16-4 was 2 mM. Then, 2µL of solution containing IMB16-4 was added into 2 mL of serum-free culture with TGFβ1. LX-2 cells were cultured as described above. LX-2 cells were seeded in a 6-well plate, cultured in DMEM/GlutaMAX I, containing 10% fetal bovine serum (FBS) in 5% CO2 atmosphere at 37 °C. Serum-free culture was replaced until the cells reached 90 ≈ 95% confluence. After 24 h, cells were treated with TGFβ1 (2 ng/mL) and IMB16-4 (2 µM) for 24 h. Then, cells were washed with phosphate buffer saline (PBS) and protein was extracted in radio-immunoprecipitation assay (RIPA) buffer. Then mixture was centrifuged at 12,000 rpm at 4 °C for 20 min. The supernatant was collected, and the total protein was determined using the bicinchoninic acid (BCA) protein assay kit (Beyotime Biotechnology, China). Samples were applied to the 10% SDS-PAGE gel. Then, the protein bands were transferred to a polyvinylidene difluoride (PVDF) membrane (Millipore Corp, Atlanta, GA, USA) and the membrane was blocked for 1 h with 5% nonfat milk. […] The protein bands were analyzed on an imager (Tanon5200, China).

[4] = Oral pharmacokinetics study; type: in vivo, Sprague–Dawley (SD) rats; conditions: SD rats, oral gavage 100 mg/kg
Protocol: The mice were maintained under a specific pathogen-free (SPF) environment with a 12 h light/dark cycle. SD rats (body weight 200 ± 20 g) were fasted overnight and divided into two groups. Raw IMB16-4 and IMB16-4-MSNs were given orally by gavages at a dose of 100 mg/kg, respectively. Before administering, both IMB16-4-MSNs and raw IMB16-4 were dispersed in 0.5% CMC-Na aqueous solution, respectively. Blood samples were collected from the eye socket vein at time points of 0.17, 0.5, 1, 2, 3, 4, 6, 8 and 12 h after dosing. Plasma samples were collected by centrifuging at 3000 rpm for 10 min and were then stored at −20 °C until analysis. Plasma samples were mixed with internal standard (4′-Chloroacetanilide) acetonitrile solution. Then, the mixture was vortex-mixed for 10 s. After centrifugation at 15,000 rpm for 10 min, the supernatant was used for HPLC-MS/MS analysis (AB SCIEX 6500 Qtrap, USA). The condition of the capillary voltage was −4500 V. The temperature was 500 °C. The mobile phase comprised acetonitrile and 10 mM of ammonium acetate aqueous solution. Analysis was carried out on an Xselect HSS T3 column (2.1 × 100 mm, 2.5 μm, Waters) in gradient elution. The column temperature was 40 °C and the flow rate was 0.3 mL/min. The standard curve for IMB16-4 was the linear (R^2 > 0.992) over the concentration range of 4~2048 ng/mL. The quantitative ion pairs of IMB16-4 and internal standard quantitative were m/z = 500.0/195.7 and m/z = 168.0/126.1, respectively. The pharmacokinetic parameters were obtained using statistic software DAS2.0.

| Compound | hepatoprotective effects (NAFLD model rats) | solubility [1] [µg/mL] | amount of dissolved IMB16-4 [2] | protein levels of α-SMA, TGF-β1 and MMP2 (antifibrotic effect) ([3]; dissolved by DMSO) | protein levels of α-SMA, TGF-β1 and MMP2 (antifibrotic effect) ([3]; suspended in sterile water) | CLz/F [4] | Tmax ([4]; Sprague-Dawley, rat, plasma) [h] | Cmax ([4]; Sprague-Dawley, rat, plasma, in 0.5% CMC-Na) [ng/mL] | AUC ([4]; Sprague-Dawley, rat, plasma, read-out: AUC0≈12 h) [ng·h/mL] | MRT ([4]; Sprague-Dawley, rat, plasma, read-out: MRT0≈12 h) [h] |
| --- | --- | --- | --- | --- | --- | --- | --- | --- | --- | --- |
| N-(3,4-dichlorophenyl)-2-(3-trifluoromethoxy) benzamide [IMB17-15] | has hepatoprotective effects | – | – | – | – | – | – | – | – | – |
| O=C(Nc1cc(Cl)c(Cl)c(Cl)c1)c1ccccc1NS(=O)(=O)c1cccc([N+](=O)[O-])c1 [IMB16-4, N-(3,4,5-trichlorophenyl)-2(3-nitrobenzenesulfonamido) benzamide] | – | 0.0432 ± 0.0091 (≈ 0.0863 µM) | about 40% | showed potential anti-liver fibrosis effects. However, the differences are not significant | poor inhibition effect | 54.70 ± 23.57 | 3.43 ± 1.4 | 180 ± 40 | 1240 ± 310 | 5.18 ± 0.77 |
